Laboratory results: patent US20250206789A1, “ZINC FINGER DEGRON SEQUENCES” (STICHTING HET NEDERLANDS KANKER INSTITUUT-ANTONI VAN …, priority 2022, published 2025)

tested on: Jurkat cells; experiment: SynFinger library screen: CD69 expression of CRASH-IT (Zap70-PD1-degron) transduced Jurkat cells with or without lenalidomide, enrichment index from NGS reads; format: cell-based; set-up: key to EI / EI index (enrichment index): enrichment index; low EI = SynFinger with desired properties; details: Table 6; dual substitutions in first hybrid zinc finger domain; Jurkat, 50 nM lenalidomide vs mock, CD69-HI/CD69-LO; low EI = desired
From the text: […] Jurkat cells were transduced with the SynFinger library (SynFinger containing CRASH-IT switches) at a 12.8% transduction efficiency and sorted for high EGFP expression to enrich transduced cells. For quality control of the SynFinger transduced Jurkat cells, SynFinger sequences were amplified and analyzed by NGS. 10 randomly selected SynFinger encoding DNA sequences or DNA sequences encoding the same SynFinger amino acid sequences but contain 2 nucleotide mismatches due to alternative codon usage were used to assess ability to distinguish true SynFinger sequences from noise in the NGS data. 10/10 SynFinger encoding full-nucleotide sequence match sequences were observed within NGS data whereas the 2 nucleotide mismatch containing sequences were not detected.
Jurkat cells expressing the SynFinger library were treated with 50 nM lenalidomide (a suboptimal dose that activates only ˜50% of cells expressing a CRASH-IT switch containing the parental double hybrid degron in Jurkat cells, as compared to a maximally effective 1000 nM lenalidomide dose) or were mock treated for 24 hours, and subsequently activated with anti-CD3/anti-CD28 antibodies in the presence or absence of 50 nM lenalidomide for 5 hours. Afterwards, cells were stained with IR dye (1:400) and anti-CD69-PE (1:200). Cells were sorted for live (IR dye negative), EGFP high end CD69 high (top 5%) or CD69 low (bottom 5%) expression using Aria Fusion cytometers.
Subsequently, cells were washed with PBS, and cell pellets were frozen at −20° C. until DNA extraction. Genomic DNA was isolated using the DNeasy Blood & Tissue Kit (Qiagen) according to the manufacturer's instructions, using 5×10^6 cells per column. DNA was eluted in 22 μl RNAse free water. Deep sequencing adapters and indexes were added to SynFinger encoding DNA sequences using PCR amplification. Briefly, 3 μg genomic DNA (20 μl), indexed forward and reverse primers (10 μM, 2.5 μl each) and 25 μl NEBNext® High-Fidelity 2×PCR Master Mix were added to the PCR reaction. An optimized PCR reaction (98° C. for 30 s, (98° C. for 10 s, 56° C. for 10 s, 72° C. for 5 s)×25 cycles, 72° C. for 3 min was performed using Eppendorf PCR cyclers.
Indexed PCR products were run on agarose gel, relative DNA concentrations were estimated by measuring band intensity, and 12 indexed PCR reaction products were mixed per MiSeq chip. To increase sequence diversity, samples were mixed with 25% PhiX DNA. In total, 2 MiSeq chips were used (100 bp, single read). To distinguish genuine SynFinger sequences from sequencing errors, results were filtered using a reference list of actual sequences used in SynFinger library design (100% codon match). Sequences with a very low number of reads (sum of all samples below 500 reads) were excluded from analysis.
To identify SynFingers that improve sensitivity of CRASH-IT switches towards lenalidomide while preserving or improving stringency of switch mediated control of T cell activation in the absence of lenalidomide, an enrichment index (EI) value was calculated for each sequence as described below, and SynFingers were ranked according to their EI, with a low EI indicating a SynFinger with desired properties.
CD69-HI and […] read counts from top 100 SynFingers were compared with read counts from the parental double hybrid degron using a two-sided Fisher's exact test to determine enrichment of CD69-HI cells in the presence of lenalidomide and enrichment of CD69-LO cells in the absence of lenalidomide.
To further improve the sensitivity of double hybrid degron towards IMiDs, we performed a high throughput screen using a library of ˜50,200 CRASH-IT variants that encode either single or double amino acid substitutions at the indicated positions of the first hybrid zinc finger sequence, thereby changing 18 amino acids of this zinc finger into any amino acid except cysteine (FIG. 3). […]

| Substance | EI index (enrichment index) |
| --- | --- |
| 98 (LQCEICGFKCRQKGNLLRHIKRH) [compound 98] | 0.04302 |
| 86 (LQCVICGFQCRQKGNLLRHIKLH) [compound 86] | 0.0393 |
| 59 (LQCEICGFTCRLKGNLLLHIKLH) [compound 59] | 0.02682 |
| 51 (LQCEICGFTCRQKKNLLRHISLH) [compound 51] | 0.02309 |
| 97 (LQCEICGFTCRKKVNLLRHIKLH) [compound 97] | 0.04294 |
| 35 (LQCEICGFTARRKGNLLRHIKLH) [compound 35] | 0.01754 |
| 84 (LQCEICGFTCRQKGKYLRHIKLH) [compound 84] | 0.03903 |
| 85 (WQCMICGFTCRQKGNLLRHIKLH) [compound 85] | 0.03924 |
| 27 (LQCEICGFTCVQKGNLLRHIALH) [compound 27] | 0.01487 |
| 57 (LQCEICGFTCRQKMNLVRHIKLH) [compound 57] | 0.02583 |
| 44 (LQCEICGFTCRQKANLKRHIKLH) [compound 44] | 0.02064 |
| 52 (FQCEICGFTCRQKRNLLRHIKLH) [compound 52] | 0.0231 |
| 66 (LQCVICGFTCRQKGNLVRHIKLH) [compound 66] | 0.02989 |
| 6 (LQCEICGFTCRQKNNLLRHIALH) [compound 6] | 0.004719 |
| 73 (LQCHICGFTSRQKGNLLRHIKLH) [compound 73] | 0.03303 |
| 32 (LQCEICGFTCRQEKNLLRHIKLH) [compound 32] | 0.01693 |
| 33 (LQCDICGFTCRQKGNLLLHIKLH) [compound 33] | 0.01705 |
| 100 (LQCEICGFTCRQKGRLLRHIHLH) [compound 100] | 0.04461 |
| 5 (LQCEICGFTCRQVKNLLRHIKLH) [compound 5] | 0.004648 |
| 76 (LQCQICGFTCRRKGNLLRHIKLH) [compound 76] | 0.03445 |
| 93 (LQCEICGFTSRQKGRLLRHIKLH) [compound 93] | 0.04175 |
| 47 (LQCEICGFTCRQKGTLLRHIKRH) [compound 47] | 0.02209 |
| 2 (LQCEICGFTCRRTGNLLRHIKLH) [compound 2] | 0.002912 |
| 99 (LQCEICGFTCRQKGNLLRHINNH) [compound 99] | 0.04339 |
| 58 (LQCRICGFTCRQKGNMLRHIKLH) [compound 58] | 0.02584 |

| Substance | EI index (enrichment index) |
| --- | --- |
| 3 (LQCEICGFTCRRKGNLMRHIKLH) [compound 3] | 0.003725 |
| 42 (LQCEICGFTCRRKGNLLRHRKLH) [compound 42] | 0.01965 |
| 80 (LQCEICGFTCRQPGNLLRHYKLH) [compound 80] | 0.03685 |
| 22 (LQCKICGFTSRQKGNLLRHIKLH) [compound 22] | 0.01311 |
| 74 (WQCEICGFTCRQKGNLLRHIALH) [compound 74] | 0.03362 |
| 37 (FQCEICGFTCRQKHNLLRHIKLH) [compound 37] | 0.01787 |
| 15 (LQCLICGFTCRRKGNLLRHIKLH) [compound 15] | 0.01014 |
| 34 (LQCEICGFTCRQKYNLLRHISLH) [compound 34] | 0.01723 |
| 45 (LQCIICGFTCRQKGNLWRHIKLH) [compound 45] | 0.0209 |
| 16 (LQCEICGFTCRRKGNLYRHIKLH) [compound 16] | 0.0107 |
| 19 (LQCEICGFTCRLKGNLLRHILLH) [compound 19] | 0.01177 |
| 20 (LQCKICGFTCRVKGNLLRHIKLH) [compound 20] | 0.01216 |
| 69 (LQCEICGFTCRQKGNLDRHIKRH) [compound 69] | 0.03188 |
| 43 (FQCEICGFTCRQKGRLLRHIKLH) [compound 43] | 0.01977 |
| 79 (LQCEICGFTCRKKGNLLRHIILH) [compound 79] | 0.03569 |
| 25 (LQCKICGFTCRQMGNLLRHIKLH) [compound 25] | 0.01383 |
| 96 (LQCEICGFTCRQKLNLLRHIKRH) [compound 96] | 0.04285 |
| 68 (HQCEICGFTCRQKGRLLRHIKLH) [compound 68] | 0.03141 |
| 41 (LQCEVCGFTCRKKGNLLRHIKLH) [compound 41] | 0.01944 |
| 61 (WQCEICGFTCRQYGNLLRHIKLH) [compound 61] | 0.0276 |
| 64 (LQCEICGFTCRQKGNLHLHIKLH) [compound 64] | 0.02947 |
| 60 (LQCEICGFTCRQWGNYLRHIKLH) [compound 60] | 0.02739 |
| 10 (LQCWICGFTCRQKGNLLRHIYLH) [compound 10] | 0.00695 |
| 40 (LQCEICGFTCKQKKNLLRHIKLH) [compound 40] | 0.01915 |
| 24 (LQCEICGFTCRQKHNLLRHIKNH) [compound 24] | 0.01351 |

| Substance | EI index (enrichment index) |
| --- | --- |
| 53 (LQCEICGFTCRQKGNLLRHYKTH) [compound 53] | 0.02363 |
| 14 (LQCEICGFTCRQKGNLIRHILLH) [compound 14] | 0.009984 |
| 8 (LQCEICGFTCRQLGNLLWHIKLH) [compound 8] | 0.006187 |
| 28 (LQCEICGFTCRRKGNLLRHIKHH) [compound 28] | 0.01589 |
| 31 (LQCEICGFTCRQKTRLLRHIKLH) [compound 31] | 0.01686 |
| 1 (LQCRICGFTCRLKGNLLRHIKLH) [compound 1] | 0 |
| 4 (LQCEICGFTCRQKMRLLRHIKLH) [compound 4] | 0.00411 |
| 91 (LQCWICGFTCRQKGNLWRHIKLH) [compound 91] | 0.04125 |
| 50 (LQCEICGFTCRNKKNLLRHIKLH) [compound 50] | 0.02307 |
| 26 (FQCEICGFTCRQKVNLLRHIKLH) [compound 26] | 0.01478 |
| 9 (LQCEICGFTCRRVGNLLRHIKLH) [compound 9] | 0.006877 |
| 89 (MQCEICGFTCRQKSNLLRHIKLH) [compound 89] | 0.04065 |
| 62 (LQCEICGFTCRQPGNLLRHIKRH) [compound 62] | 0.02767 |
| 94 (MQCVICGFTCRQKGNLLRHIKLH) [compound 94] | 0.04229 |
| 70 (LQCWICGFTCRQKMNLLRHIKLH) [compound 70] | 0.03192 |
| 75 (LQCHICGFTCRQHGNLLRHIKLH) [compound 75] | 0.03442 |
| 87 (LQCEICGFTCRQKQRLLRHIKLH) [compound 87] | 0.0394 |
| 63 (LQCWICGFTCRRKGNLLRHIKLH) [compound 63] | 0.02829 |
| 90 (LQCEICGFTCRQHGVLLRHIKLH) [compound 90] | 0.04107 |
| 77 (LQCEICGFTCRKRGNLLRHIKLH) [compound 77] | 0.03531 |
| 21 (LQCEICGFSCRQKGNLRRHIKLH) [compound 21] | 0.01255 |
| 48 (LQCEICGFTCRKKGNLLRHKKLH) [compound 48] | 0.02219 |
| 49 (LQCEICGFTCRRKGSLLRHIKLH) [compound 49] | 0.02268 |
| 88 (LQCEICGFRCRQKGNLLRHIKKH) [compound 88] | 0.03947 |
| 30 (LQCMICGFTFRQKGNLLRHIKLH) [compound 30] | 0.01673 |
